This passage reports Activity, MIC and zone of inhibition results from ChEMBL document CHEMBL3085711, “Phosphorus-nitrogen compounds part 27. Syntheses, structural characterizations, antimicrobial and cytotoxic activities, and DNA interactions of new phosphazenes bearing secondary amino and pendant (4-fluorobenzyl)spiro groups” (2013).

In general, MIC refers to the smallest concentration in the dilution series that meets the test's criterion for growth inhibition. High values mean a need for much substance, low ones inhibition by little substance.

Test [1] relates to Escherichia coli. Description: Binding affinity to Escherichia coli pBR322 DNA assessed as DNA strand cleavage at 156 to 2500 uM after 24 hrs by agarose gel electrophoresis.
Test [2] has as its system Escherichia coli. Briefly: Binding affinity to Escherichia coli pBR322 G/GATCC DNA assessed as DNA strand cleavage at 625 to 2500 uM preincubated for 24 hrs prior to BamHI treatment measured after 1 hr by agarose gel electrophoresis.
Test [3] relates to HeLa. Description: Cytotoxicity against human HeLa cells assessed as decrease in cell viability at 5 to 50 ug/ml after 24 hrs by MTT assay relative to control. The class given is functional. In general terms: Tetrazolium dyes change colour on reduction, which living cells bring about.
The test system of test [4] is HeLa. Briefly: Cytotoxicity against human HeLa cells assessed as decrease in cell viability at 10 to 50 ug/ml after 24 hrs by MTT assay relative to control. The class given is functional, cell-based.
For test [5], the system named is HeLa. Description: Cytotoxicity against human HeLa cells assessed as decrease in cell viability after 24 hrs by MTT assay. The class given is functional, cell-based.
For test [6], the system named is Candida tropicalis. Description: Antifungal activity against Candida tropicalis ATCC 13803. In kind it is functional.
Test [7] concerns Candida albicans. Briefly: Antifungal activity against Candida albicans ATCC 10231 at 0.25 mM after 72 hrs by disk diffusion method. In kind it is functional. To be noted: ATCC 10231, 72 h, read-out: DIZ.
Test [8] has as its system Candida tropicalis. Description: Antifungal activity against Candida tropicalis ATCC 13803 at 0.25 mM after 72 hrs by disk diffusion method. The class given is functional. To be noted: ATCC 13803, 72 h, read-out: DIZ. A general note: Agar diffusion results depend on both activity and mobility in agar.
The test system of test [9] is Candida albicans. Description: Antifungal activity against Candida albicans ATCC 10231. The class given is functional.
Test [10] has as its system Bacillus cereus. Briefly: Antibacterial activity against Bacillus cereus at 30 ug after 24 hrs by disk diffusion method. The class given is functional. The following applies: read-out: DIZ.
For test [11], the system named is Bacillus subtilis. Description: Antibacterial activity against Bacillus subtilis at 30 ug after 24 hrs by disk diffusion method. The class given is functional. To be noted: read-out: DIZ.
The test system of test [12] is Bacillus subtilis. Description: Antibacterial activity against Bacillus subtilis. In kind it is functional.
In test [13] the test system is Bacillus subtilis. Briefly: Antibacterial activity against Bacillus subtilis at 0.25 mM after 24 hrs by disk diffusion method. To be noted: read-out: DIZ. The class given is functional.
Test [14] concerns Bacillus cereus. Description: Antibacterial activity against Bacillus cereus at 0.25 mM after 24 hrs by disk diffusion method. In kind it is functional. The following applies: read-out: DIZ.
Test [15] has as its system Bacillus cereus. Briefly: Antibacterial activity against Bacillus cereus. The class given is functional.
Test [16] concerns Bacillus cereus. Briefly: Antibacterial activity against Bacillus cereus at 10 ug after 24 hrs by disk diffusion method. The class given is functional. To be noted: read-out: DIZ.
Test [17] concerns Bacillus subtilis. Briefly: Antibacterial activity against Bacillus subtilis at 10 ug after 24 hrs by disk diffusion method. The class given is functional. To be noted: read-out: DIZ.
Test [18] has as its system HeLa. Description: Induction of apoptosis in human HeLa cells at 25 uM after 48 to 72 hrs by DAPI staining-based fluorescence microscopic analysis. The class given is functional, cell-based.
The subject of test [19] is HeLa. Briefly: Cytotoxicity against human HeLa cells assessed as decrease in cell survival at 10 ug/ml after 48 hrs by trypan blue exclusion assay. In kind it is functional, cell-based.
Test [20] deals with HeLa. Briefly: Induction of apoptosis in human HeLa cells assessed as loss of mitochondrial membrane potential at 25 uM after 24 hrs by DiOC6 staining-based fluorescence microscopic analysis. The class given is functional, cell-based.
Test [21] relates to HeLa. Briefly: Induction of apoptosis in human HeLa cells assessed as change in cellular morphology at 25 uM after 24 hrs by propidium iodide staining-based fluorescence microscopic analysis. The class given is functional, cell-based.
Test [22] deals with Escherichia coli. Description: Binding affinity to Escherichia coli pBR322 A/AGCTT DNA assessed as DNA strand cleavage at 625 to 2500 uM preincubated for 24 hrs prior to HindIII treatment measured after 1 hr by agarose gel electrophoresis.
Test [23] relates to Candida albicans. Description: Antifungal activity against Candida albicans ATCC 10231 at 50 ug after 72 hrs by disk diffusion method. The following applies: ATCC 10231, 72 h, read-out: DIZ. The class given is functional.
Test [24] deals with Candida tropicalis. Description: Antifungal activity against Candida tropicalis ATCC 13803 at 50 ug after 72 hrs by disk diffusion method. The class given is functional. To be noted: ATCC 13803, 72 h, read-out: DIZ.
In test [25] the test system is HeLa. Briefly: Cytotoxicity against human HeLa cells assessed as decrease in cell viability at 5 ug/ml after 24 hrs by MTT assay relative to control. The class given is functional, cell-based.

Each structure is given as a SMILES string. In brackets after ≈: the same amount, converted by molar mass. Activity calls are given as the source filed them.

As for `CCN1CCN(Cc2ccc(F)cc2)P12=NP(N1CCC3(CC1)OCCO3)(N1CCC3(CC1)OCCO3)=NP(N1CCC3(CC1)OCCO3)(N1CCC3(CC1)OCCO3)=N2` (centres undefined), the result in the test on Escherichia coli [1] and in the test with Escherichia coli [2] was Active. The result in the test on HeLa [3] was inactive.

For `CN1CCCN(Cc2ccc(F)cc2)P12=NP(N1CCCCC1)(N1CCCCC1)=NP(N1CCCCC1)(N1CCCCC1)=N2` (centres undefined), the result in the test with HeLa [4], in the test on Escherichia coli [1] and in the test on Escherichia coli [2] was Active. In addition, in the test with HeLa [5], the Activity entry is “Dose-dependent effect”. Also, the MIC in the test with Candida tropicalis [6] came out at 19.5 µM (≈ 13 µg/mL); against Candida albicans [9], 9.8 µM (≈ 6.52 µg/mL). The zone of inhibition at 250 µM in the test on Candida albicans [7] was 18.3 mm; in the test on Candida tropicalis [8] it was 20 mm.

Take `O=C(N[C@H](CO)[C@H](O)c1ccc([N+](=O)[O-])cc1)C(Cl)Cl` [CHLORAMPHENICOL]: the zone of inhibition at 30 µg/disc in the test with Bacillus cereus [10] is 26 mm; in the test with Bacillus subtilis [11], 31 mm.

Consider `CC(=O)O[C@H]1C(=O)[C@@]2(C)[C@H]([C@H](OC(=O)c3ccccc3)[C@]3(O)C[C@H](OC(=O)[C@H](O)[C@@H](NC(=O)c4ccccc4)c4ccccc4)C(C)=C1C3(C)C)[C@]1(OC(C)=O)CO[C@@H]1C[C@@H]2O`, for which the Activity entry in the test on HeLa [5] was “Dose-dependent effect”. The outcome in the test with HeLa [3] was Active.

Take `CN1CCCN(Cc2ccc(F)cc2)P12=NP(N1CCCC1)(N1CCCC1)=NP(N1CCCC1)(N1CCCC1)=N2` (centres undefined): the results for the minimum inhibitory concentration (MIC) with Bacillus subtilis [12] and against Bacillus cereus [15] were 9.8 µM (≈ 5.97 µg/mL) and 156 µM (≈ 95.3 µg/mL), respectively. The zone of inhibition at 250 µM in the test on Bacillus subtilis [13] stood at 16.5 mm; in the test on Bacillus cereus [14] it was 12.6 mm. Also, the Activity entry in the test with HeLa [5] was “Dose-dependent effect”; with HeLa [3] it was 50%. Besides, the outcome in the test on Escherichia coli [1] and in the test on Escherichia coli [2] was Active.

On to `CC1(C)S[C@@H]2[C@H](NC(=O)[C@H](N)c3ccccc3)C(=O)N2[C@H]1C(=O)O` [AMPICILLIN], for which the zone of inhibition at 10 µg/disc amounted to 26.3 mm with Bacillus cereus [16] and 30.3 mm with Bacillus subtilis [17].

With `CN1CCCN(Cc2ccc(F)cc2)P12=NP(N1CCC3(CC1)OCCO3)(N1CCC3(CC1)OCCO3)=NP(N1CCC3(CC1)OCCO3)(N1CCC3(CC1)OCCO3)=N2` (centres undefined), the outcome in the test with HeLa [18], with HeLa [19], in the test on HeLa [20], with Escherichia coli [1] and with Escherichia coli [2] was Active. Also, the result with HeLa [21] was inactive. Also, in the test with HeLa [3], the Activity amounted to 49%.

In the case of `CCN1CCN(Cc2ccc(F)cc2)P12=NP(N1CCCCC1)(N1CCCCC1)=NP(N1CCCCC1)(N1CCCCC1)=N2` (centres undefined), the MIC against Bacillus subtilis [12] worked out at 156 µM (≈ 104 µg/mL); against Candida tropicalis [6] it was 19.5 µM (≈ 13 µg/mL); against Candida albicans [9], 625 µM (≈ 416 µg/mL). Moreover, the results for the zone of inhibition at 250 µM with Bacillus subtilis [13], in the test with Candida albicans [7] and with Candida tropicalis [8] were 10.7 mm, 12.3 mm and 17.3 mm, respectively. Also, the Activity entry in the test with HeLa [5] is “Dose-dependent effect”. Besides, the result in the test on Escherichia coli [1] and with Escherichia coli [2] was Active.

On to `CN1CCCN(Cc2ccc(F)cc2)P12=NP(N1CCOCC1)(N1CCOCC1)=NP(N1CCOCC1)(N1CCOCC1)=N2` (centres undefined), for which the result in the test with HeLa [20], with Escherichia coli [22] and in the test with Escherichia coli [1] was Active. Further, the result in the test with HeLa [21] was inactive. In addition, in the test with HeLa [3], the Activity is on record as 58%.

As to `CCN1CCN(Cc2ccc(F)cc2)P12=NP(N1CCOCC1)(N1CCOCC1)=NP(N1CCOCC1)(N1CCOCC1)=N2` (centres undefined), the outcome with Escherichia coli [22] and in the test on Escherichia coli [1] was Active. Also, the result in the test on HeLa [3] was inactive.

As for `CC(=O)N1CCN(c2ccc(OCC3COC(Cn4ccnc4)(c4ccc(Cl)cc4Cl)O3)cc2)CC1` (centres undefined) [KETOCONAZOLE], the zone of inhibition at 50 µg/disc in the test on Candida albicans [23] and in the test with Candida tropicalis [24] was 29 mm each time.

`CCN1CCN(Cc2ccc(F)cc2)P12=NP(N1CCCC1)(N1CCCC1)=NP(N1CCCC1)(N1CCCC1)=N2` (centres undefined) had an MIC against Bacillus subtilis [12] of 9.8 µM (≈ 5.97 µg/mL). Further, in the test on Bacillus subtilis [13], the zone of inhibition at 250 µM was 11.5 mm. Besides, in the test on HeLa [5], the Activity entry was “Dose-dependent effect”. Also, the result in the test with Escherichia coli [1], in the test with Escherichia coli [2] and in the test on HeLa [25] was Active.

Consider `CN1CCN(Cc2ccc(F)cc2)P12=NP(N1CCCC1)(N1CCCC1)=NP(N1CCCC1)(N1CCCC1)=N2` (centres undefined), for which, in the test with Bacillus subtilis [12], 9.8 µM (≈ 5.84 µg/mL) was the least that counted as inhibitory (MIC). Also, in the test on Bacillus subtilis [13], the zone of inhibition at 250 µM came to 12.3 mm. The Activity entry in the test on HeLa [5] was “Dose-dependent effect”. In addition, the outcome with Escherichia coli [1] and with Escherichia coli [2] was Active.

Consider `CN1CCN(Cc2ccc(F)cc2)P12=NP(N1CCC3(CC1)OCCO3)(N1CCC3(CC1)OCCO3)=NP(N1CCC3(CC1)OCCO3)(N1CCC3(CC1)OCCO3)=N2` (centres undefined), for which the outcome in the test on HeLa [18], in the test with HeLa [19], in the test with HeLa [20], in the test with Escherichia coli [1] and with Escherichia coli [2] was Active. Also, the outcome in the test on HeLa [21] and in the test on HeLa [3] was inactive.

For `CN1CCN(Cc2ccc(F)cc2)P12=NP(N1CCCCC1)(N1CCCCC1)=NP(N1CCCCC1)(N1CCCCC1)=N2` (centres undefined), the Activity result in the test with HeLa [5] was “Dose-dependent effect”. Besides, the result in the test with Escherichia coli [1] and in the test with Escherichia coli [2] was Active. The minimal inhibitory concentration (MIC) in the test with Candida tropicalis [6] and against Candida albicans [9] was 156 µM (≈ 102 µg/mL) in each case. In addition, the zone of inhibition at 250 µM with Candida albicans [7] came out at 13.6 mm; with Candida tropicalis [8], 17.3 mm.

For `CN1CCN(Cc2ccc(F)cc2)P12=NP(N1CCOCC1)(N1CCOCC1)=NP(N1CCOCC1)(N1CCOCC1)=N2` (centres undefined), the outcome in the test with Escherichia coli [22] and with Escherichia coli [1] was Active. The outcome in the test with HeLa [3] was inactive.
